Test [1] has as its system PR Ser294 phosphorylation. As to the kind of experiment: Breast tumor explants, phospho-Ser294 PR IHC. The note with it: progesterone 10 nM plus U0126 (1 nM as printed elsewhere in the source), 2 hours. In kind it is cell-based, human.
Excerpt: De-identified breast tumor samples were collected after surgery and immediately processed for tissue explant maintenance on sponges in cell culture medium, as previously described (Ravindranathan et al. Nature Communications 2013, 4:1923). Samples were derived from six patients pathologically diagnosed with invasive ductal carcinoma (IDC) and scored positive for ER (94-100%) and PR (1-100%), and negative for HER2 expression. […] In additional experiments, six explants were similarly treated with estrogen or progesterone (2 hours) but in combination with 1 uM U0126 (to inhibit ERKs 1/2) and phospho-Ser294 PR levels were measured by IHC.
ER+ luminal tumors were maintained as explants as above and instead treated with either vehicle or progesterone (10 nM) for 2 hours in the presence or absence of the MEK1/2 inhibitor U0126 (1 nM) prior to IHC staining using specific antibodies for total and phospho-Ser294 PR as well as ER-alpha and phospho-ERK1/2 (n=6; see Methods).
In test [2] the test system is PR target gene expression. As to the kind of experiment: Global gene expression analysis (Illumina HT-12v4) in T47D cells expressing WT or K388R PR-B. Type of test: cell-based, human. The note with it: T47D KR PR, antiprogestin 10^-7 M, 6 hours. Here is the method:
For genome-wide microarray expression analysis, T47D cells expressing pIRES-neo3 empty vector, WT PR, or K388R PR were serum starved in modified improved minimum essential media (IMEM) (Gibco, ThermoFisher Scientific, Waltham, Mass.) for one day before treatment. Eight groups were treated with vehicle control, progesterone (10^−8 M), mifepristone (10^−7 M), aglepristone (10^−7 M), onapristone (10^−7 M), or combined treatment of progesterone+mifepristone, progesterone+aglepristone, or progesterone+onapristone for six hours before RNA extraction using a RNeasy kit (QIAgen). DNase I treated (QIAgen) RNA samples from triplicate experiments were prepared for expression analysis using the Illumina HT-12v4 bead chip platform according to standard protocols. Raw data from agonist-treated cells (progesterone or R5020) collected from two identically performed independent experiments (from this study and a previous study: GSE34148 (Knutson et al. Breast Cancer Res 2012, 14:R95)) was combined, normalized, and batch-corrected to ensure that gene expression values were informative across samples from separate experiments. Data were analyzed within multiple common R (R Core Team: R: A language and environment for statistical computing. R Foundation for Statistical Computing, Vienna, Austria 2015, [available on the world wide web at r-project.org/]) and Bioconductor (Gentleman et al. Genome Biol 2004, 5:R80) packages. Raw intensities were log 2 transformed and quantile normalized using lumi (Du et al. Bioinformatics 2008, 24:1547-1548), batch corrected using sva (Leek et al.: sva: Surrogate Variable Analysis. R package version 3.18.0.), and multiple probes for a single gene were collapsed using genefilter (Gentleman et al.: genefilter: genefilter: methods for filtering genes from high-throughput experiments. R package version 1.52.1). Differentially expressed genes (pairwise comparisons between all eight groups) were analyzed in limma (Smyth: Limma: linear models for microarray data. In: Bioinformatics and computational biology solutions using R and Bioconductor. edn.: Springer; 2005: 397-420), where empirical Bayes was used to better estimate the variance of the genes. Biological comparisons (for example, R5020/vehicle) were presented as log 2 fold change including the Benjamini and Hochberg (BH) adjusted P value (Benjamini et al. J Roy Stat Soc B Met 1995, 57:289-300) to account for multiple hypothesis testing. Expression data is available in the GEO database, accession: GSE94363.
Normalized gene expression data were filtered to isolate only high variance genes using the bioconductor package genefilter (Gentleman et al.: genefilter: genefilter: methods for filtering genes from high-throughput experiments. In., R package version 1.50.0 edn: R package version 1.50.0) using interquartile range cutoff value of 0.85. Non-negative matrix factorization (NMF) was performed within R using the NMF package version 0.20.5 (Gaujoux et al. BMC bioinformatics 2010, 11:367) where matrix factors were rank (2-10) and algorithm (brunet or snmf/r) optimized using the nmf function with parameters nrun=30 and seed=123456. […] Clustering and plots were performed in R (NMF package, a heat map function) using Euclidean distance and UPGMA (average) linkage.
PR ligand-mediated promoter selectivity remains understudied, especially in the context of antiprogestins and posttranslationally modified PR species. […]

Test [3] relates to PR Ser294 phosphorylation. The experiment in a line: PR Ser294 phosphorylation in T47D cells (Western blotting, immunofluorescence). In kind it is cell-based, human. Conditions: T47D cells expressing WT or KR PR. On the procedure: T47D human breast cancer cell lines engineered to stably express PR variants (null, WT, K388R, or S294A) were previously described (Knutson et al. Breast Cancer Res 2012, 14:R9). T47D cells were maintained in complete minimal essential medium (cMEM) supplemented with 5% fetal bovine serum (FBS), 1% non-essential amino acids (NEAA), 1% penicillin/streptomycin, 6 ng/ml insulin (CellGro, Manassas, Va., USA, catalog #10-010-CV). T47D cells described above were engineered to also stably express RUNX2 shRNAs via the pLKO.1 knockdown expression vector system, which required 25 μg/ml puromycin for the vector. In various experiments, cells or explants were treated with E2, ICI 182 780, R5020, mifepristone, aglepristone, or onapristone (Arno Therapeutics, Inc., Flemington, N.J.).
Immunocytochemistry was performed on T47D cells expressing PR variants to measure total- and phospho-Ser294 PR levels. 500,000 cells were grown on coverslips in 6-well plates, starved in IMEM plus 5% charcoal stripped FBS, treated, and fixed with 4% paraformaldehyde for 20 min. The cells were permeabilized with 0.3% Triton-X100 before incubating with total-PR (clone Ab8, ThermoFisher Scientific, Waltham, Mass.) or custom phospho-Ser294-PR (clone 8508) antibodies. Cells were incubated with fluorescent secondary antibodies (Alexa Fluor 488) and DAPI mounting medium (Life Technologies, ThermoFisher Scientific, Waltham, Mass.) before visualizing on a Zeiss microscope with A4 and L5 filter cubes. Immunoblotting was performed as previously described (Daniel et al. Mol Endocrinol 2007, 21:2890-2906).
In addition, extensive luminal breast cancer heterogeneity may limit the ability to observe a subset of PR-driven breast cancers without patient selection. In this case, PR target gene expression may provide an accurate means of predicting which breast tumors are likely to be influenced by PR-driven biological pathways enacted by active phospho-Ser294 PRs. To probe changes in PR target gene expression in the presence or absence of commonly used PR ligands (R5020, RU486), including diverse antiprogestins (aglepristone, onapristone) currently in development for clinical use, the well characterized model system of T47D breast cancer cells, stably expressing either unmodified wild-type (WT) PR-B or a transcriptionally hyperactive form of deSUMOylated K388R PR-B (KR; this receptor faithfully mimics phosphorylated PR-B with regard to target gene selection) were used (Knutson et al. Pharmacology & therapeutics 2014, 142:114-125; Daniel et al. Mol Endocrinol 2007, 21:2890-2906). Whether the antiprogestins mifepristone (also called RU486), aglepristone, or onapristone alter PR Ser294 phosphorylation were tested in these T47D breast cancer models. Cells were treated for 1 hour with vehicle, progesterone, mifepristone, aglepristone, or onapristone and whole cell lysates were processed for Western blotting or immunofluorescence (IF) analysis (FIG. 4A, B). […] Greater loss of total KR PR protein was also apparent in the presence of progesterone and selected antiprogestins relative to liganded WT PR, consistent with increased turnover of deSUMOylated active receptors relative to intact WT PRs.

Test [4] concerns T47D cells. As to the kind of experiment: Mammosphere formation in T47D cells. Type of test: cell-based, human. The note with it: T47D EV, WT, KR or S294A PR-B; estrogen 1 nM, progesterone 10 nM; 14 days. On the procedure:
Primary Mammospheres: Adherent cells were washed with PBS and dissociated enzymatically in 0.25% trypsin-EDTA (Invitrogen Corporation, Carlsbad, Calif.). Cells were sieved through a 40-μm sieve (BD FALCON, BD Biosciences, Bedford, Mass.) and analyzed microscopically for single-cellularity. Single cells were plated in ultra-low attachment plates (Corning, Inc., Corning, N.Y.) and cultured in a humid incubator. Cells were grown in a serum-free mammary epithelial basal medium (MEBM; Lonza Group, Basel, Switzerland) containing 1% B27 Supplement (Invitrogen Corporation, Carlsbad, Calif.), 1% penicillin-streptomycin (Invitrogen Corporation, Carlsbad, Calif.), 5 μg/ml insulin (Invitrogen Corporation, Carlsbad, Calif.), 20 ng/ml EGF (Sigma-Aldrich, St. Louis, Mo.), 1 ng/ml hydrocortisone (Sigma-Aldrich, St. Louis, Mo.), and 100 μM β-mercaptoethanol. […] Mammosphere Forming Efficiency (MFE) % was calculated by the number of mammospheres per well/number of cells seeded per well.
Secondary Mammospheres: Primary mammospheres were collected by centrifugation (5 min, 1000 rpm), and dissociated enzymatically in 0.25% typsin-EDTA. Cells were sieved through a 40-μm tip strainer (Bel-Art SP Scienceware, South Wayne, N.J.) and analyzed microscopically for single-cellularity. […] Mammosphere Forming Efficiency (MFE) % was calculated by the number of mammospheres per well/number of cells seeded per well. […]

Test [5] has as its system breast cancer. Conditions: women receiving tamoxifen; cited from earlier work.

Here are results for 4 compounds from patent US10942183B2, “Methods of detecting progesterone receptor and of detecting an expression level” (REGENTS OF THE UNIVERSITY OF MINNESOTA, priority 2017, dated 2021).

Each structure is given as a SMILES string.

As for `N#CC(=C(/N)Sc1ccccc1N)/C(C#N)=C(\N)Sc1ccccc1N` [U0126], in test [1], the “effect on progesterone-induced PR Ser294 phosphorylation in tumor explants” value is “blocked”.
`C/C=C\[C@]1(O)CC[C@H]2[C@@H]3CCC4=CC(=O)CCC4=C3[C@@H](c3ccc(N(C)C)cc3)C[C@@]21C` [aglepristone]: in test [2], the “regulation of PR target genes in cells expressing KR PR” value is given as “substantially regulate multiple genes in cells expressing KR PR”. Besides, the “PR Ser294 phosphorylation, ligand alone” value in test [3] (1 hour) is listed as “stimulated robust PR Ser294 phosphorylation”. The “PR Ser294 phosphorylation in the presence of progesterone (co-treatment)” value in test [3] (progesterone plus antiprogestin) is given as “also induced Ser294 phosphorylation”.
For the compound `C[C@]12CC[C@@H]3c4ccc(O)cc4CC[C@H]3[C@@H]1CC[C@@H]2O` [estrogen, estradiol], in test [4], the “total numbers of primary and secondary mammospheres on addition of hormone to culture media” value is on record as “had no significant effect on total numbers in any condition”.
Take `CC/C(=C(\c1ccccc1)c1ccc(OCCN(C)C)cc1)c1ccccc1` [tamoxifen]: in test [5], the “women suffering tumor relapse” value was roughly 40%.
